Where “and” joins values, the source holds several entries; their conditions need not be identical. Equal values may be shown once. Toxic doses and inconclusive results are not listed.
Tested on: L1210 leukemia ip in BDF1 mice, survival T/C
Test: NCI In Vivo Anticancer Drug Screen. Data for tumor model L1210 Leukemia (intraperitoneal) in B6D2F1 (BDF1) mice
Conditions: endpoint: mean survival time, higher = longer survival
How it was run: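 Read-out is survival time, reported as the treated-group measurement over the vehicle-control measurement.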

[1] = dose: 100.0 mg/kg/injection, schedule: Q04DX003 (ip), vehicle: saline with Tween-80
[2] = dose: 200.0 mg/kg/injection, schedule: Q04DX003 (ip), vehicle: saline with Tween-80
[3] = dose: 400.0 mg/kg/injection, schedule: Q04DX003 (ip), vehicle: saline with Tween-80
[4] = dose: 100.0 mg/kg/injection, schedule: Q01DX001 (ip), vehicle: saline
[5] = dose: 200.0 mg/kg/injection, schedule: Q01DX001 (ip), vehicle: saline
[6] = dose: 400.0 mg/kg/injection, schedule: Q01DX001 (ip), vehicle: saline
[7] = dose: 100.0 mg/kg/injection, schedule: Q04DX002 (ip), vehicle: Klucel (hydroxypropylcellulose) (HPC)
[8] = dose: 100.0 mg/kg/injection, schedule: Q04DX003 (ip), vehicle: Klucel (hydroxypropylcellulose) (HPC)
[9] = dose: 200.0 mg/kg/injection, schedule: Q04DX002 (ip), vehicle: Klucel (hydroxypropylcellulose) (HPC)
[10] = dose: 200.0 mg/kg/injection, schedule: Q04DX003 (ip), vehicle: Klucel (hydroxypropylcellulose) (HPC)
[11] = dose: 400.0 mg/kg/injection, schedule: Q04DX002 (ip), vehicle: Klucel (hydroxypropylcellulose) (HPC)
[12] = dose: 400.0 mg/kg/injection, schedule: Q04DX003 (ip), vehicle: Klucel (hydroxypropylcellulose) (HPC)
[13] = dose: 50.0 mg/kg/injection, schedule: Q01DX009 (ip), vehicle: saline
[14] = dose: 100.0 mg/kg/injection, schedule: Q01DX009 (ip), vehicle: saline
[15] = dose: 100.0 mg/kg/injection, schedule: Q01DX009 (ip), vehicle: saline with Tween-80
[16] = dose: 200.0 mg/kg/injection, schedule: Q01DX009 (ip), vehicle: saline with Tween-80

Cc1ccc(S(=O)(=O)OCCCOS(=O)(=O)c2ccc(C)cc2)cc1
T/C [1]: 96 % of control | T/C [2]: 102 % of control | T/C [3]: 98 % of control

Cc1ccc(CC#N)c(-c2c(CC#N)ccc(C)c2C)c1C
T/C (dose: 100.0 mg/kg/injection, schedule: Q04DX002 (ip), vehicle: gum acacia): 87 % of control | T/C (dose: 200.0 mg/kg/injection, schedule: Q04DX002 (ip), vehicle: gum acacia): 93 % of control | T/C (dose: 400.0 mg/kg/injection, schedule: Q04DX002 (ip), vehicle: gum acacia): 93 % of control

CCOC(=O)Cc1cc(=O)c2cc(C)ccc2[nH]1
T/C [4]: 90 % of control | T/C [5]: 89 % of control | T/C [6]: 90 % of control

O=CC(C=O)[N+](=O)[O-]
T/C (dose: 100.0 mg/kg/injection, schedule: Q01DX009 (ip), vehicle: Klucel (hydroxypropylcellulose) (HPC)): 100 % of control | T/C [7]: 97 % of control | T/C [8]: 97 % of control | T/C (dose: 200.0 mg/kg/injection, schedule: Q01DX009 (ip), vehicle: Klucel (hydroxypropylcellulose) (HPC)): 105 % of control | T/C [9]: 94 % of control | T/C [10]: 102 % of control | T/C (dose: 400.0 mg/kg/injection, schedule: Q01DX009 (ip), vehicle: Klucel (hydroxypropylcellulose) (HPC)): 108 % of control | T/C [11]: 105 % of control | T/C [12]: 102 % of control

Cc1ccc[nH]c1=O
T/C [13]: 95 % of control | T/C [14]: 93 % of control | T/C (dose: 100.0 mg/kg/injection, schedule: Q04DX003 (ip), vehicle: saline): 107 % of control | T/C (dose: 200.0 mg/kg/injection, schedule: Q01DX009 (ip), vehicle: saline): 91 % of control | T/C (dose: 200.0 mg/kg/injection, schedule: Q04DX003 (ip), vehicle: saline): 109 % of control

COC(=O)c1cc([N+](=O)[O-])ccc1Br
T/C [1]: 101 % of control | T/C [2]: 93 % of control | T/C [3]: 104 % of control

O=C1OCCS1
T/C (dose: 25.0 mg/kg/injection, schedule: Q01DX009 (ip), vehicle: saline): 107 % of control | T/C [13]: 104 % of control | T/C [14]: 101 % of control and 105 % of control

CC1C(=O)CCC2(C)CCCCC12 (configuration not stated)
T/C (dose: 75.0 mg/kg/injection, schedule: Q01DX001 (ip), vehicle: other): 103 % of control | T/C (dose: 150.0 mg/kg/injection, schedule: Q01DX001 (ip), vehicle: other): 101 % of control | T/C (dose: 300.0 mg/kg/injection, schedule: Q01DX001 (ip), vehicle: other): 103 % of control

O=N/C=C/C(=N/Nc1ccc(C(=O)O)cc1)[N+](=O)[O-]
T/C [4]: 101 % of control | T/C [5]: 93 % of control | T/C [6]: 93 % of control

Cc1ccc(S(=O)(=O)NC(CCl)=NCC23CC4CC(CC(C4)C2)C3)cc1
T/C (dose: 31.3 mg/kg/injection, schedule: Q04DX002 (ip), vehicle: Klucel (hydroxypropylcellulose) (HPC)): 113 % of control | T/C (dose: 62.5 mg/kg/injection, schedule: Q04DX002 (ip), vehicle: Klucel (hydroxypropylcellulose) (HPC)): 94 % of control | T/C (dose: 125.0 mg/kg/injection, schedule: Q04DX002 (ip), vehicle: Klucel (hydroxypropylcellulose) (HPC)): 94 % of control

O=C(Nc1cccc(Cl)c1)Oc1ccc(C2CCCCC2)cc1
T/C [7]: 104 % of control | T/C [9]: 99 % of control | T/C [11]: 101 % of control

c1ccc(C(C2CCCCC2)(C2CCCCC2)C(c2ccccc2)(C2CCCCC2)C2CCCCC2)cc1
T/C (dose: 25.0 mg/kg/injection, schedule: Q04DX003 (ip), vehicle: Klucel (hydroxypropylcellulose) (HPC)): 105 % of control | T/C (dose: 50.0 mg/kg/injection, schedule: Q04DX003 (ip), vehicle: Klucel (hydroxypropylcellulose) (HPC)): 111 % of control | T/C [8]: 92 % of control and 93 % of control | T/C [10]: 93 % of control | T/C [12]: 87 % of control

O=C1CC2C=CCC12 (configuration not stated)
T/C [1]: 95 % of control | T/C [2]: 93 % of control | T/C [3]: 93 % of control

Cc1ccc(C(C)(C)C)c(OCC2=NCCN2)c1
T/C (dose: 10.0 mg/kg/injection, schedule: Q04DX003 (ip), vehicle: Klucel (hydroxypropylcellulose) (HPC)): 96 % of control | T/C (dose: 12.5 mg/kg/injection, schedule: Q01DX009 (ip), vehicle: Klucel (hydroxypropylcellulose) (HPC)): 86 % of control | T/C (dose: 20.0 mg/kg/injection, schedule: Q04DX003 (ip), vehicle: Klucel (hydroxypropylcellulose) (HPC)): 90 % of control | T/C (dose: 25.0 mg/kg/injection, schedule: Q01DX009 (ip), vehicle: Klucel (hydroxypropylcellulose) (HPC)): 96 % of control | T/C (dose: 40.0 mg/kg/injection, schedule: Q04DX003 (ip), vehicle: Klucel (hydroxypropylcellulose) (HPC)): 96 % of control | T/C (dose: 50.0 mg/kg/injection, schedule: Q01DX009 (ip), vehicle: Klucel (hydroxypropylcellulose) (HPC)): 104 % of control

O=[N+]([O-])c1ccc(OCc2ccc(S(=O)(=O)F)cc2Cl)c(Cl)c1
T/C (dose: 100.0 mg/kg/injection, schedule: Q04DX003 (ip), vehicle: gum acacia): 98 % of control | T/C (dose: 200.0 mg/kg/injection, schedule: Q04DX003 (ip), vehicle: gum acacia): 95 % of control | T/C (dose: 400.0 mg/kg/injection, schedule: Q04DX003 (ip), vehicle: gum acacia): 97 % of control

CC(C)Cc1ccc(C(C)C(=O)O)cc1 (configuration not stated)
T/C [4]: 100 % of control | T/C [5]: 92 % of control

COc1cccc(/C=N\NC(=O)CNC(=O)Nc2ccc(Cl)c(Cl)c2)c1OC
T/C (dose: 50.0 mg/kg/injection, schedule: Q01DX009 (ip), vehicle: saline with Tween-80): 93 % of control | T/C [15]: 93 % of control | T/C [16]: 86 % of control

CC(C)N(CSc1ccc([N+](=O)[O-])cc1)CSc1ccc([N+](=O)[O-])cc1
T/C [4]: 100 % of control | T/C [5]: 96 % of control | T/C [6]: 98 % of control

O=C(Cc1cccc2ccccc12)N/N=C/c1ccc(Cl)cc1Cl
T/C [15]: 96 % of control | T/C [16]: 93 % of control

O=NN(CCCl)C(=O)Nc1ccc2oc(=O)c3ccccc3c2c1
T/C (dose: 1.25 mg/kg/injection, schedule: Q01DX001 (ip), vehicle: Klucel (hydroxypropylcellulose) (HPC)): 123 % of control | T/C (dose: 2.5 mg/kg/injection, schedule: Q01DX001 (ip), vehicle: Klucel (hydroxypropylcellulose) (HPC)): 105 % of control | T/C (dose: 5.0 mg/kg/injection, schedule: Q01DX001 (ip), vehicle: Klucel (hydroxypropylcellulose) (HPC)): 112 % of control | T/C (dose: 10.0 mg/kg/injection, schedule: Q01DX001 (ip), vehicle: carboxymethylcellulose (CMC)): 150 % of control | T/C (dose: 35.0 mg/kg/injection, schedule: Q01DX001 (ip), vehicle: carboxymethylcellulose (CMC)): 164 % of control | T/C (dose: 150.0 mg/kg/injection, schedule: Q01DX001 (ip), vehicle: carboxymethylcellulose (CMC)): 120 % of control | T/C (dose: 177.0 mg/kg/injection, schedule: Q01DX009 (ip), vehicle: carboxymethylcellulose (CMC)): 101 % of control | T/C (dose: 266.0 mg/kg/injection, schedule: Q01DX009 (ip), vehicle: carboxymethylcellulose (CMC)): 95 % of control | T/C (dose: 400.0 mg/kg/injection, schedule: Q01DX009 (ip), vehicle: carboxymethylcellulose (CMC)): 92 % of control | T/C (dose: 600.0 mg/kg/injection, schedule: Q01DX001 (ip), vehicle: carboxymethylcellulose (CMC)): 152 % of control | T/C (dose: 600.0 mg/kg/injection, schedule: Q01DX009 (ip), vehicle: carboxymethylcellulose (CMC)): 87 % of control

CC(C)(C)C(=O)CC(=O)C(C)(C)C.CC(C)(C)C(=O)CC(=O)C(C)(C)C.CC(C)(C)C(=O)CC(=O)C(C)(C)C.[Tb]
T/C [1]: 93 % of control | T/C [2]: 93 % of control | T/C [3]: 94 % of control

— PubChem BioAssay AID248 (DTP/NCI, 2004)
